From US10981860B2, “Caspase inhibitor and pharmaceutical composition, use and therapeutic method thereof” (Chia Tai Tianqing Pharmaceutical Group Co., Ltd., priority 2016, dated 2021)
Where two headings read alike, the source gives them in different places. Blank lines part the entries; values can stand above or below the molecule they belong to.

Legend:
[1] = Mouse pharmacokinetic study (intravenous and oral); assay type: in vivo; settings: for half-life (in words) / in vivo exposure (in words): Examples compared to reference compound IDN-6556
From the text: Experimental Example 2: Mouse Pharmacokinetic Study
The mice were randomly divided into two groups (one intravenous group and one oral group) or only oral group, 3 males in each group. The compounds were formulated into the designated preparations. The intravenous preparations should be filtered to provide clear solutions, and the oral preparations can be clear or can be uniform suspensions. All animals in the intravenous group were intravenously injected with the given doses of the compound preparations through tail veins. The oral group was administrated with the given doses of the preparations by gavage.
Whole blood samples were collected from the other side of the tail vein at 8 time points (2 min, 5 min, 15 min, 30 min, 1 h, 2 h, 4 h and 8 h after administration) in the intravenous group, about 25 μL for each sample; whole blood samples were collected from the tail vein at 8 time points (2 min, 5 min, 15 min, 30 min, 1 h, 2 h, 4 h and 8 h after administration) in the oral group, about 25 μL for each sample.
[…] were added to a centrifuge tube containing anticoagulants, and centrifuged at 4° C., 3000 g for 15 min. The supernatant plasma was quickly frozen on dry ice and stored in a ⋅ refrigerator at −70° C.±10° C. until LC-MS/MS analysis was performed.
The concentration data of plasma drug for the compounds were processed with the non-compartmental model using WinNonlin™ Version 6.3.0 (Pharsight, Mountain View, Calif.) pharmacokinetic software. The peak concentration (Cmax), time to peak concentration (Tmax) and last time for quantitative were obtained directly from the blood concentration-time chart.
The following pharmacokinetic parameters were calculated by using Log-linear Trapezoidal method: elimination phase half-life (T1/2); apparent volume of distribution (Vdss) and clearance rate (CL); the average residence time of the drug in vivo from 0 to the last time point (MRT0-last); the average residence time of the drug in vivo from zero time to infinity (MRT0-inf); the area under time-plasma concentration curve from 0 to the last time point (AUC0-last); the area under time-plasma concentration curve from zero time to infinity (AUC0-inf); initial concentration (C0).
For individual plasma concentrations of less than BQL, the concentrations appeared before Tmax were calculated as 0, and the concentrations appeared after Tmax were directly excluded. All parameters and ratios were reported in the forms of three significant digits.
The pharmacokinetic parameters of this experiment were calculated according to the theoretical blood collection times and the theoretical dose concentrations as described in the protocol. The deviations between the actual dose concentrations and the theoretical concentrations were within the range of ±20%. The deviations between the actual blood collection times and the theoretical blood collection times were in conformity with the relevant SOP (the point within 1 hour after administration was within the range of ±1 min, and the others were within 5% of the theoretical time).

[2] = test system: Anti-Fas-induced Jurkat cells; assay: Anti-Fas-induced apoptosis of Jurkat cells in vitro (Caspase 3 substrate Ac-DEVD-AMC fluorescence); assay type: cell-based; settings: Homo sapiens; Jurkat Clone E6-1, Anti-Fas 50 ng/mL, 24 hours, Ac-DEVD-AMC 10 μM

Compound: O=C(O)C[C@H](NC(=O)C1CCN(C(=O)C2CCCC2)CC1)C(=O)COc1c(F)c(F)cc(F)c1F [Example 49]
in vivo exposure (in words) [1]: significantly improved
Apparent volume of distribution ([1]; intravenous injection 1 mpk): 0.653 L/kg
Area under the concentration-time curve ([1]; intravenous injection 1 mpk): 0.852 µM·h
Clearance rate ([1]; intravenous injection 1 mpk): 38.6 mL/min/kg
Half-life ([1]; intravenous injection 1 mpk): 52.2 min
Area under the concentration-time curve ([1]; oral administration 10 mpk): 1.708 µM·h
Bioavailability ([1]; oral administration 10 mpk): 20.1%
Peak concentration ([1]; oral administration 10 mpk): 405 nM
Time to peak concentration ([1]; oral administration 10 mpk): 1 h

Compound: CC(C)OC(=O)N1CCC(C(=O)N[C@@H](CC(=O)O)C(=O)COc2c(F)c(F)cc(F)c2F)CC1 [Example 68]
EC50 [2]: 23.2 nM

Compound: O=C(O)C[C@H](NC(=O)C1CCN(C(=O)C(=O)NCCC2CCCC2)CC1)C(=O)COc1c(F)c(F)cc(F)c1F [Example 62]
EC50 [2]: 42.4 nM

Compound: O=C(O)C[C@H](NC(=O)C1CCN(C(=O)NCc2ccccc2)CC1)C(=O)COc1c(F)c(F)cc(F)c1F [Example 78]
EC50 [2]: 35.9 nM

Compound: O=C(O)C[C@H](NC(=O)C1CCN(C(=O)OCC(F)(F)F)CC1)C(=O)COc1c(F)c(F)cc(F)c1F [Example 67]
EC50 [2]: 14.6 nM

Compound: CC(C)(C)c1ccccc1C(=O)N1CCC(C(=O)N[C@@H](CC(=O)O)C(=O)COc2c(F)c(F)cc(F)c2F)CC1 [Example 53]
EC50 [2]: 67.5 nM

Compound: O=C(O)C[C@H](NC(=O)[C@@H]1CCCN(C(=O)OC2CCCC2)C1)C(=O)COc1c(F)c(F)cc(F)c1F [Example 28]
EC50 [2]: 22.1 nM

Compound: O=C(O)C[C@H](NC(=O)C1CCN(C(=O)C(=O)NC2CCCC2)CC1)C(=O)COc1c(F)c(F)cc(F)c1F [Example 61]
EC50 [2]: 50.4 nM

Compound: O=C(O)C[C@H](NC(=O)[C@@H]1CCCN(C(=O)C(=O)NC2CCCC2)C1)C(=O)COc1c(F)c(F)cc(F)c1F [Example 27]
EC50 [2]: 21.1 nM

Compound: O=C(O)C[C@H](NC(=O)C1CCN(C(=O)c2nc3ccccc3s2)CC1)C(=O)COc1c(F)c(F)cc(F)c1F [Example 58]
EC50 [2]: 16.6 nM

Compound: O=C(O)C[C@H](NC(=O)[C@@H]1CCCN(C(=O)Oc2ccccc2)C1)C(=O)COc1c(F)c(F)cc(F)c1F [Example 31]
EC50 [2]: 21.4 nM

Compound: O=C(O)C[C@H](NC(=O)C1CCN(C(=O)OCc2ccccc2)CC1)C(=O)COc1c(F)c(F)cc(F)c1F [Example 71]
EC50 [2]: 29.3 nM

Compound: CC(C)(C)c1ccccc1NC(=O)C(=O)N1CCC(C(=O)N[C@@H](CC(=O)O)C(=O)COc2c(F)c(F)cc(F)c2F)CC1 [Example 7]
half-life (in words) [1]: significantly improved
in vivo exposure (in words) [1]: significantly improved
oral bioavailability (in words) ([1]; compared to reference compound IDN-6556): significantly improved
Area under the concentration-time curve ([1]; oral administration 10 mpk): 3.657 µM·h
Peak concentration ([1]; oral administration 10 mpk): 1636 nM
Time to peak concentration ([1]; oral administration 10 mpk): 0.833 h

Compound: CC1(C(=O)N2CCC(C(=O)N[C@@H](CC(=O)O)C(=O)COc3c(F)c(F)cc(F)c3F)CC2)CCCC1 [Example 52]
EC50 [2]: 21 nM

Compound: O=C(O)C[C@H](NC(=O)C1CCN(C(=O)c2nccc3ccccc23)CC1)C(=O)COc1c(F)c(F)cc(F)c1F [Example 34]
EC50 [2]: 43 nM

Compound: O=C(O)C[C@H](NC(=O)C1CCN(C(=O)OC2CCCC2)CC1)C(=O)COc1c(F)c(F)cc(F)c1F [Example 69]
in vivo exposure (in words) [1]: significantly improved
Area under the concentration-time curve ([1]; oral administration 10 mpk): 4.18 µM·h
Peak concentration ([1]; oral administration 10 mpk): 1993 nM
Time to peak concentration ([1]; oral administration 10 mpk): 0.5 h

The remaining lines, values ahead:

half-life (in words) [1]: relatively short
in vivo exposure (in words) [1]: low
Apparent volume of distribution ([1]; intravenous injection 1 mpk): 0.82 L/kg
Area under the concentration-time curve ([1]; intravenous injection 1 mpk): 0.446 µM·h
Clearance rate ([1]; intravenous injection 1 mpk): 106 mL/min/kg
Half-life ([1]; intravenous injection 1 mpk): 15 min
Bioavailability ([1]; male, plasma, 10 mg/kg, oral administration 10 mpk, read-out: Bioavailability): ≤ 4%
Area under the concentration-time curve ([1]; oral administration 10 mpk): 0.197 µM·h
Bioavailability ([1]; oral administration 10 mpk): 4.4%
Peak concentration ([1]; oral administration 10 mpk): 227 nM
Time to peak concentration ([1]; oral administration 10 mpk): 0.25 h
Compound: C[C@H](NC(=O)C(=O)Nc1ccccc1C(C)(C)C)C(=O)N[C@@H](CC(=O)O)C(=O)COc1c(F)c(F)cc(F)c1F [IDN-6556, reference compound]

EC50 [2]: 29.8 nM
Compound: O=C(O)C[C@H](NC(=O)C1CCN(c2nc3cc(F)ccc3o2)CC1)C(=O)COc1c(F)c(F)cc(F)c1F [Example 104]

EC50 [2]: 44.2 nM
Compound: O=C(O)C[C@H](NC(=O)C1CCN(C(=O)C(=O)N2CCCC2)CC1)C(=O)COc1c(F)c(F)cc(F)c1F [Example 90]

EC50 [2]: 5.8 nM
Compound: O=C(O)C[C@H](NC(=O)[C@@H]1CCCCN(C(=O)c2noc3ccccc23)C1)C(=O)COc1c(F)c(F)cc(F)c1F [Example 122]

EC50 [2]: 16.2 nM
Compound: O=C(O)C[C@H](NC(=O)[C@H]1COCCN(C(=O)c2cc(-c3ccccc3Cl)on2)C1)C(=O)COc1c(F)c(F)cc(F)c1F [Example 125]

EC50 [2]: 5.65 nM
Compound: O=C(O)C[C@H](NC(=O)[C@H]1COCCN(C(=O)C(=O)Nc2ccccc2Cl)C1)C(=O)COc1c(F)c(F)cc(F)c1F [Example 129]

EC50 [2]: 66.3 nM
Compound: CC(C)(C)c1ccccc1NC(=O)C(=O)N1CCCCC[C@H](C(=O)N[C@@H](CC(=O)O)C(=O)COc2c(F)c(F)cc(F)c2F)C1 [Example 114]

EC50 [2]: 46.2 nM
Compound: CC(C)(C)c1ccccc1NC(=O)C(=O)N1CCCCC[C@@H](C(=O)N[C@@H](CC(=O)O)C(=O)COc2c(F)c(F)cc(F)c2F)C1 [Example 113]

EC50 [2]: 24 nM
Compound: O=C(O)C[C@H](NC(=O)C1CCN(c2nc3ccccc3o2)CC1)C(=O)COc1c(F)c(F)cc(F)c1F [Example 83]

EC50 [2]: 33.2 nM
Compound: Cc1ccc(C)c(CNC(=O)C(=O)N2CCC(C(=O)N[C@@H](CC(=O)O)C(=O)COc3c(F)c(F)cc(F)c3F)CC2)c1 [Example 95]

EC50 [2]: 8.1 nM
Compound: O=C(O)C[C@H](NC(=O)[C@@H]1COCCN(C(=O)C(=O)Nc2ccccc2Cl)C1)C(=O)COc1c(F)c(F)cc(F)c1F [Example 130]
